Measurements: US10526347B2, “3-(3H-imidazo[4,5-B]pyridin-2-yl)-1H-pyrazolo[3,4-B]pyridine and therapeutic uses thereof” (Samumed, LLC, priority 2014, dated 2020)

Key:
[1] = tested on: Wnt activity (SW480 colon carcinoma cells stably expressing the Sp5-Luc reporter gene); assay: Sp5-Luc reporter gene screening assay for Wnt activity; type: cell-based; settings: Homo sapiens
Text: The screening assay for Wnt activity is described as follows. Reporter cell lines can be generated by stably transducing cancer cell lines (e.g., colon cancer) or primary cells (e.g., IEC-6 intestinal cells) with a lentiviral construct that includes a Wnt-responsive promoter driving expression of the firefly luciferase gene.
SW480 colon carcinoma cells were transduced with a lentiviral vector expressing luciferase with a human Sp5 promoter consisting of a sequence of eight TCF/LEF binding sites. SW480 cells stably expressing the Sp5-Luc reporter gene and a hygromycin resistance gene were selected by treatment with 150 μg/ml of hygromycin for 7 days. These stably transduced SW480 cells were expanded in cell culture and used for all further screening activities. For Sp5-Luc reporter gene assays, the cells were plated at 10,000 cells/well in 96-well plates with growth medium containing 10% fetal calf serum and incubated overnight at 37° C. and 5% CO2. Each compound was dissolved in DMSO as a 10 mM stock in standard j-vials and used to prepare compound source plates in dose-response format with 3-fold serial dilutions and a 10 mM top concentration. Compound transfer from serially diluted source plates to assay plates containing the cells was accomplished using a pintool (Multimek 96, Beckman equipped with V&P Scientific FP1S50H pins) based liquid handling protocol. This protocol used a slotted pin to transfer 50 nl of compound from a source plate well to an assay plate well containing 50 μl of cells in growth medium. […] Control wells received 50 nl of DMSO treatment for normalization and calculating IC50 values. The treated cells were incubated at 37° C. and 5% CO2 for an additional forty-two hours. Following incubation, the growth medium was removed and 50 μl of BrightGlo luminescence reagent (Promega) was added to each well of the 96-well assay plates. The plates were placed on an orbital shaker for 5 min and then luminescence was quantified on the Victor3 (Perkin Elmer) plate reader. Readings were normalized to DMSO only treated cells, and normalized activities were utilized for IC50 calculations using the dose-response log (inhibitor) vs. response -variable slope (four parameters) nonlinear regression feature available in GraphPad Prism 5.0 or 6.0.

[2] = tested on: primary human fibroblasts derived from IPF patients (LL29 cells); assay: Inhibition of the fibrotic process in TGF-β1 treated IPF patient fibroblasts (αSMA staining); type: cell-based; settings: Fibroblast, 96 h, LL29 cells treated with TGF-β1 (20 ng/mL), 4 days, read-out: Inhibition of fibrosis EC50
Text: The above synthesized compounds were screened using primary human fibroblasts (derived from IPF patients) treated with TGF-β1 to determine their ability to inhibit the fibrotic process.
Primary human fibroblasts derived from IPF patients (LL29 cells) [^1Xiaoqiu Liu, et. al., “Fibrotic Lung Fibroblasts Show Blunted Inhibition by cAMP Due to Deficient cAMP Response Element-Binding Protein Phosphorylation”, Journal of Pharmacology and Experimental Therapeutics (2005), 315(2), 678-687; ^2Watts, K. L., et. al., “RhoA signaling modulates cyclin D1 expression in human lung fibroblasts; implications for idiopathic pulmonary fibrosis”, Respiratory Research (2006), 7(1), 88] were obtained from American Type Culture Collection (ATCC) and expanded in F12 medium supplemented with 15% Fetal Bovine Serum and Penicillin/Streptomycin.
Each compound was dissolved in DMSO as a 10 mM stock and used to prepare compound source plates. Serial dilution (1:2, 11-point dose-response curves from 10 μM to 1.87 nM) and compound transfer was performed using the ECHO 550 (Labcyte, Sunnyvale, Calif.) into 384-well clear bottom assay plates (Greiner Bio-One) with appropriate DMSO backfill for a final DMSO concentration of 0.1%. LL29 cells were plated at 1,500 cells/well in 80 μl/well F12 medium supplemented with 1% Fetal Bovine Serum. One hour after addition of the cells, TGF-β1 (Peprotech; 20 ng/mL) was added to the plates to induce fibrosis (ref. 1 and 2 above). Wells treated with TGF-β1 and containing DMSO were used as controls. Cells were incubated at 37° C. and 5% CO2 for 4 days. Following incubation for 4 days, SYTOX green nucleic acid stain (Life Technologies [Thermo Fisher Scientific]) was added to the wells at a final concentration of 1 uM and incubated at room temperature for 30 min. Cells were then fixed using 4% formaldehyde (Electron Microscopy Sciences), washed 3 times with PBS followed by blocking and permeabilization using 3% Bovine Serum Albumin (BSA; Sigma) and 0.3% Triton X-100 (Sigma) in PBS. Cells were then stained with antibody specific to α-smooth muscle actin (αSMA; Abcam) (ref. 1 and 2 above) in 3% Bovine Serum Albumin (BSA; Sigma) and 0.3% Triton X-100 (Sigma) in PBS, and incubated overnight at 4° C. Cells were then washed 3 times with PBS, followed by incubation with Alexa Flor-647 conjugated secondary antibody (Life Technologies [Thermo Fisher Scientific]) and DAPI at room temperature for 1 hour. Cells were then washed 3 times with PBS and plates were sealed for imaging. αSMA staining was imaged by excitation at 630 nm and emission at 665 nm and quantified using the Compartmental Analysis program on the CellInsight CX5 (Thermo Scientific). Dead or apoptotic cells were excluded from analysis based on positive SYTOX green staining. % of total cells positive for αSMA were counted in each well and normalized to the average of 11 wells treated with TGF-β1 on the same plate using Dotmatics' Studies Software. The normalized averages (fold change over untreated) of 3 replicate wells for each compound concentration were used to create dose-responses curves and EC50 values were calculated using non-linear regression curve fit in the Dotmatics' Studies Software. The EC50 values are reported.

| SMILES | IC50 [1] [nM] | EC50 [2] [nM] |
| --- | --- | --- |
| CC(C)C(=O)Nc1cncc(-c2cnc3[nH]nc(-c4nc5c(N6CCN(C)CC6)ccnc5[nH]4)c3c2)c1 [Compound 192, N-(5-(3-(7-(4-Methylpiperazin-1-yl)-3H-imidazo[4,5-b]pyridin-2-yl)-1H-pyrazolo[3,4-b]pyridin-5-yl)pyridin-3-yl)isobutyramide] | > 10000 | ≤ 9 |
| CN1CCN(c2ccnc3[nH]c(-c4n[nH]c5ncc(-c6cncc(N)c6)cc45)nc23)CC1 [Compound 186, 5-(3-(7-(4-Methylpiperazin-1-yl)-3H-imidazo[4,5-b]pyridin-2-yl)-1H-pyrazolo[3,4-b]pyridin-5-yl)pyridin-3-amine] | > 10000 | ≥ 9990 |
| Fc1cccc(-c2ccnc3[nH]c(-c4n[nH]c5ncc(-c6cncc(OC7CCNCC7)c6)cc45)nc23)c1 [Compound 916, 3-(7-(3-Fluorophenyl)-3H-imidazo[4,5-b]pyridin-2-yl)-5-(5-(piperidin-4-yloxy)pyridin-3-yl)-1H-pyrazolo[3,4-b]pyridine] | > 10000 | ≤ 9 |
| c1cncc(-c2cnc3[nH]nc(-c4nc5c(-c6cccnc6)ccnc5[nH]4)c3c2)c1 [Compound 68, 5-(Pyridin-3-yl)-3-(7-(pyridin-3-yl)-3H-imidazo[4,5-b]pyridin-2-yl)-1H-pyrazolo[3,4-b]pyridine] | > 10000 | ≥ 9990 |
| Cc1ccc(-c2ccnc3[nH]c(-c4n[nH]c5ncc(-c6cncc(CN7CCCCC7)c6)cc45)nc23)s1 [Compound 351, 3-(7-(5-Methylthiophen-2-yl)-3H-imidazo[4,5-b]pyridin-2-yl)-5-(5-(piperidin-1-ylmethyl)pyridin-3-yl)-1H-pyrazolo[3,4-b]pyridine] | > 10000 | ≥ 9990 |
| CN(C)Cc1cncc(-c2cnc3[nH]nc(-c4nc5c(-c6cccs6)ccnc5[nH]4)c3c2)c1 [Compound 297, N,N-Dimethyl-1-(5-(3-(7-(thiophen-2-yl)-3H-imidazo[4,5-b]pyridin-2-yl)-1H-pyrazolo[3,4-b]pyridin-5-yl)pyridin-3-yl)methanamine] | > 10000 | ≥ 9990 |

Continued, in another order:

| IC50 [1] [nM] | SMILES | EC50 [2] [nM] |
| --- | --- | --- |
| > 10000 | CN(C)Cc1cncc(-c2cnc3[nH]nc(-c4nc5c(-c6cccc(F)c6)ccnc5[nH]4)c3c2)c1 [Compound 10, 1-(5-(3-(7-(3-Fluorophenyl)-3H-imidazo[4,5-b]pyridin-2-yl)-1H-pyrazolo[3,4-b]pyridin-5-yl)pyridin-3-yl)-N,N-dimethylmethanamine] | 2550 |
| > 10000 | CCNCc1cncc(-c2cnc3[nH]nc(-c4nc5c(-c6ccoc6)ccnc5[nH]4)c3c2)c1 [Compound 264, N-((5-(3-(7-(Furan-3-yl)-3H-imidazo[4,5-b]pyridin-2-yl)-1H-pyrazolo [3,4-b]pyridin-5-yl)pyridin-3-yl)methyl)ethanamine] | ≤ 9 |
| 1050 | COc1cncc(-c2cnc3[nH]nc(-c4nc5c(-c6cccc(F)c6)ccnc5[nH]4)c3c2)c1 [Compound 920, 3-(7-(3-Fluorophenyl)-3H-imidazo[4,5-b]pyridin-2-yl)-5-(5-methoxypyridin-3-yl)-1H-pyrazolo[3,4-b]pyridine] | ≤ 9 |
| 221 | Cn1cc(-c2cnc3[nH]nc(-c4nc5c(-c6cccc(F)c6)ccnc5[nH]4)c3c2)cn1 [Compound 912, 3-(7-(3-Fluorophenyl)-3H-imidazo[4,5-b]pyridin-2-yl)-5-(1-methyl-1H-pyrazol-4-yl)-1H-pyrazolo[3,4-b]pyridine] | 118 |
| 42.3 | CC(C)(C)C(=O)Nc1cncc(-c2cnc3[nH]nc(-c4nc5c(-c6ccc(F)cc6)ccnc5[nH]4)c3c2)c1 [Compound 28, N-(5-(3-(7-(4-Fluorophenyl)-3H-imidazo[4,5-b]pyridin-2-yl)-1H-pyrazolo[3,4-b]pyridin-5-yl)pyridin-3-yl)pivalamide] | 26 |
| 27 | Oc1cncc(-c2cnc3[nH]nc(-c4nc5c(-c6cccc(F)c6)ccnc5[nH]4)c3c2)c1 [Compound 921, 5-(3-(7-(3-Fluorophenyl)-3H-imidazo[4,5-b]pyridin-2-yl)-1H-pyrazolo[3,4-b]pyridin-5-yl)pyridin-3-ol] | 164 |
